experiment: Human HepG2 cell viability assay in 384 well format; type: toxicity, cell-based; parameters: dose 125 nL, time 70.5 hour; concentration not given beside the values; conditions: HepG2 cells, read-out: Inhibition

Row | Structure (SMILES) | cytotoxicity at 70.5 h
1 | CC(=O)N[C@@H]1CN(C(=O)c2cccc(C(F)(F)F)c2)C[C@H]1O | -4.74%
2 | COc1ccc2[nH]cc(C(=O)CNc3nccs3)c2c1 | 14.4%
3 | CC(C)(C)OC(=O)N1CCN(c2ccc(F)cc2)CC1C(=O)O (centres undefined) | -1.03%
4 | CN(C)c1cc2c(nn1)CCN(C(=O)C1CCCc3ccccc31)C2 (centres undefined) | -8.02%
5 | Cn1nc(COCC2CC2)c2c1CCN(Cc1cccs1)C2 | -4.53%
6 | COCCn1cc(C(=O)NC2CCS(=O)(=O)C2)c2ccccc2c1=O (centres undefined) | -14.8%
7 | Cn1ncc2c1CCCC2NCc1cccc2c1OCCCO2 (centres undefined) | 0.963%
8 | CC(C)(C)C(=O)N1CCCN(c2ncnc3nc(N)ccc23)CC1 | -1.35%
9 | Cn1cc(C(=O)NCc2cn3c(n2)CN(CC2CCOCC2)CC3)cn1 | -1.1%
10 | Cc1cn2c(n1)CCC(NC(=O)c1oc(Br)cc1C)C2 (centres undefined) | -11.5%
11 | Cc1cccc(OC2CN(C(=O)c3cnn(C)c3)C2)c1 | 16.2%
12 | O=S(=O)(C1CC1)N1CCC2(CC1)CN(Cc1nccs1)CCO2 | -5.12%
13 | CN(C)C(=O)COC[C@H]1CC[C@@H]2[C@@H](CCN2Cc2ccco2)O1 | 7.59%
14 | COC(=O)C1CCN(C(=O)c2cc(Br)ccc2-n2cnnn2)CC1 | -1.5%
15 | Cc1nc(C(=O)N2CCN(S(C)(=O)=O)CC2)c(-c2ccccc2)s1 | 9.71%
16 | Cc1ccc(C)c(CC(=O)NC2CCCS(=O)(=O)C2)c1 (centres undefined) | 6.95%
17 | COc1ccc(CN(C)[C@@H]2CN(C(=O)c3cncs3)C[C@H]2O)cc1 | 0.0164%
18 | COCCOc1cccc(CNCC2CN(C)CCO2)c1 (centres undefined) | -0.0199%
19 | c1cncc(-c2nc3c(c(NCC4(c5ccncc5)CC4)n2)CCC3)c1 | -0.48%
20 | Nc1nnc(CCCNC(=O)c2ccc(C3CCCNC3)cc2)s1 (centres undefined) | 8.02%
21 | CCC[C@H]1CN(S(C)(=O)=O)C[C@@H]1NC(=O)CCCn1ccnc1 | 1.51%
22 | Cc1nnc(NC(=O)NCc2ccnc(N(C)C)c2)s1 | 1.13%
23 | Cn1cc(CNC2CCS(=O)(=O)C2)c(-c2cc3ccccc3o2)n1 (centres undefined) | 5.22%

Row | Structure (SMILES) | cytotoxicity at 70.5 h
24 | CCn1c(CN(C)C)nnc1C1CCN(Cc2ccc(Cl)cc2F)CC1 | -0.622%
25 | CCN(CC1CCOC1)C(=O)CCc1nc(C(C)(C)C)no1 (centres undefined) | -10.1%
26 | CC(=O)Nc1nc(C2CCN(C(C)C)CC2)cs1 | -1.18%
27 | CCOC(C)c1noc(CN2CCN(Cc3ccno3)CC2)n1 (centres undefined) | -3.49%
28 | CC1CCN(C(=O)CSCc2nc(C3CC3)no2)CC1 | -2.56%
29 | CNS(=O)(=O)CC(=O)NCc1cc2c(s1)CCCCC2 | -1.17%
30 | Cn1cnc(S(=O)(=O)N2CCCc3cc(F)cc(F)c32)c1Cl | 10.5%
31 | O=c1c(Cc2ccc(Cl)cc2Cl)c(O)ccn1CC1CC1 | -5.97%
32 | Cc1nn(C)c2ncnc(N3CCC(O)(CN4CCCC4)CC3)c12 | -6.34%
33 | NC[C@H]1CC[C@H](C(NC(=O)c2ccccn2)c2ccccn2)CC1 (some centres undefined) | -4.69%
34 | CN(Cc1ccccc1)CC(O)Cn1cnc2sccc2c1=O (centres undefined) | -8.79%
35 | Cc1nc(-c2ccccc2)c(C(=O)N2CCC3(CC(=O)NC3=O)C2)s1 (centres undefined) | -6.69%
36 | COc1ccc(N2CCN(C(=O)c3nc(Cl)sc3C(C)C)CC2)cc1 | -18.9%
37 | CC(C)N1CCCC2(CCN(C(=O)CCCn3ccnc3)C2)C1=O (centres undefined) | -12.1%
38 | CC(C)c1nc(-c2cc(C(=O)NCCCO)c3ccccn23)cs1 | -3.65%
39 | COCc1ccccc1C(=O)N1CCn2c(nnc2C(C)C)C1 | -3.21%
40 | CC(NC(=O)CCc1cccs1)c1nnc2n1CCC2 (centres undefined) | -36.3%
41 | Cc1ccc(CN2CCC3(CC(=O)N(c4ccc5c(c4)OCO5)C3)C2)o1 (centres undefined) | -6.86%
42 | NC(=O)c1ccc(CN2CCCC(N3CCCC3)C2)cc1 (centres undefined) | -7.14%
43 | CCCc1nc(C)c(C(=O)NCCn2ccnc2)s1 | -7.16%
44 | Cc1csc2ncc(-c3ccnc(N4CCC[C@@H]4CO)n3)c(=O)n12 | -2.68%
45 | Cc1ccc(CNCC2CNc3cc(C)nn3C2)cn1 (centres undefined) | 15.9%
46 | CN(C)c1nc(O)cc(C2CCN(C(=O)Cc3ccccn3)C2)n1 (centres undefined) | 1.91%

Row | Structure (SMILES) | cytotoxicity at 70.5 h
47 | CCN(CC)Cc1cc(C(=O)N2CCCC(O)(CO)C2)c(C)o1 (centres undefined) | -7.27%
48 | O=S1(=O)CCC(S(=O)(=O)c2cccc(S(=O)(=O)N3CCCC3)c2)C1 (centres undefined) | -12.1%
49 | Cc1ccc(N2CCN(C(=O)C3CN(C)C(=O)N3)CC2=O)cc1 (centres undefined) | 3.04%
50 | Cc1ccc(NC(=O)c2cnc(N3CCN(C)CC3)nc2C)cc1C | -4.49%
51 | CN(C)CCOCc1nnc2n1CCN(Cc1ccc(F)cc1)CC2 | 23.8%
52 | CC(C)(C)c1nnc(NCC(=O)N2CCc3sccc3C2)s1 | -10.5%
53 | CCOC(C)c1nccn1Cc1cc(C)on1 (centres undefined) | -1.6%
54 | O=C(CO)N1CCC(CCc2ccnc(Nc3cnccn3)c2)CC1 | -2.09%
55 | CC(C)Cc1ncc2c(n1)CN(C(=O)Cn1c(=O)oc3ccccc31)C2 | -14.5%
56 | O=C(c1cnc(NCC2CCCO2)c(Cl)c1)N1CCCCC1 (centres undefined) | 30.2%
57 | COc1ccccc1-c1noc(CCC(=O)NC(C)Cn2cccn2)n1 (centres undefined) | -3.38%
58 | Cc1cc(NC(=O)C(C)Nc2cccc(COCc3ccco3)c2)no1 (centres undefined) | -13.8%
59 | CCN1C(=O)CC[C@@H]2[C@H]1CCN2S(=O)(=O)c1cccs1 | -4.53%
60 | O=C1c2cnc(N3CCC(O)CC3)nc2CN1Cc1cccc(F)c1 | 22%
61 | Cc1cc(N(C)C)nc(C2(C)CCCN2C(=O)c2ccccc2)n1 (centres undefined) | -8.94%
62 | CC(=O)N(Cc1ncc(C)o1)C1CCN(Cc2sc(C)nc2C)C1 (centres undefined) | -3.28%
63 | CNC(=O)C1CCC2(CCN(c3nncs3)CC2)CO1 (centres undefined) | -2.99%
64 | c1ccc(CCN2CCOC(CNc3cccnn3)C2)nc1 (centres undefined) | -12.5%
65 | O=C1CN([C@@H]2CC[C@@H](NS(=O)(=O)c3ccccc3F)[C@H]2O)CCN1 | 25.1%
66 | CC(NC(=O)N1CCN(c2ccc(Cl)cc2)CC1)C(=O)N1CCSCC1 (centres undefined) | -12.6%
67 | COCCNc1nc(-c2ccc(S(=O)(=O)N3CCCCCC3)cc2)cs1 | -5.83%
68 | Cn1cc(C[C@H]2[C@@H](O)CCN2C(=O)C2CC=CC2)cn1 | 7.47%
69 | CC(=O)N1CCN(Cc2ccc3c(c2)OCCO3)CC(O)C1 (centres undefined) | -10.7%

Row | Structure (SMILES) | cytotoxicity at 70.5 h
70 | O=C(Nc1ccc(F)c(Cl)c1)N1CCCN([C@H]2COC[C@@H]2O)CC1 | -14.1%
71 | COCCN1CCC(CNC(=O)C2(c3cc(C)cc(C)c3)CC2)CC1 | -1.48%
72 | CCn1nc(C)cc1C(=O)NCc1noc(C(C)(C)C)n1 | -1.63%
73 | CS(=O)(=O)N1CCC(C(=O)N2CCC(Cn3cccn3)CC2)CC1 | -12.3%
74 | CCOc1cccc(CCNC(=O)Cc2ccccc2O)n1 | -14.9%
75 | COc1ccnc(N2CCN(C(=O)c3csc(C(C)C)n3)CC2)n1 | 9.24%
76 | Cc1ccsc1CN(C)C(=O)c1ccc(N2CCOCC2)c(F)c1 | -7.5%
77 | COc1ccc(CNC[C@H]2COCc3nc4cccnc4n32)cn1 | -6.49%
78 | Cc1nc(NC(=O)NCc2nc3cccc(C)c3n2C)oc1C | 13.5%
79 | Cc1ccc(-c2noc(C3CCN3C(=O)c3ccn(C)n3)n2)s1 (centres undefined) | 1.02%
80 | COc1ccc(CN2CCCN(C(=O)C(C)n3ccnc3)CC2)cc1 (centres undefined) | -4.32%
81 | CN(C)S(=O)(=O)N1CCC(c2ccncn2)CC1 | -11.3%
82 | Cc1cc(C)n(CC2CCCN2Cc2cscn2)n1 (centres undefined) | 5.49%
83 | Cc1cn2c(n1)C(CNCc1ccc(C)s1)CCC2 (centres undefined) | 8.09%
84 | CN(C)c1nccc(-c2c[nH][nH]c2=O)n1 | -1.59%
85 | CCN(CC1CN(Cc2nccn2CC)CCO1)c1cccnn1 (centres undefined) | -9.34%
86 | Cn1ccnc1CN1C[C@@H]2OCCN(c3ncccn3)[C@@H]2C1 | -16.1%
87 | Cc1cc(Oc2ccccc2F)nc(C2CCCCN2)n1 (centres undefined) | -6.21%
88 | Cc1cc(CNC(=O)NCC(O)c2cccc(C(F)(F)F)c2)no1 (centres undefined) | 1.91%
89 | CN(C)C(=O)Cc1ccc(NC(=O)NC2CCCC2)cc1 | -7.5%
90 | COCCN1CCN(C(=O)C[C@@H]2C[C@@H](C(C)C)[C@H](CC#N)C=C2C)CC1 | 1.71%
91 | CCc1nsc(N2CCN(C(=O)c3ccnc(N(C)C)c3)CC2)n1 | -6.45%
92 | CCCNC(c1cccnc1)c1ccc(F)cc1F (centres undefined) | 42.9%

Row | Structure (SMILES) | cytotoxicity at 70.5 h
93 | CNc1nc(C(=O)NCc2cccnc2N(C)C)cs1 | 1.65%
94 | O=C(c1ncoc1C1CCCO1)N1CCC2(CCCCC2)CC1 (centres undefined) | -3.26%
95 | CC(C)c1noc(CN2CCN(C(=O)c3cccc(F)c3)CC2)n1 | -8.17%
96 | COCCNc1ccccc1CNC(=O)NCc1cnc(C)s1 | -0.0167%
97 | CC(C)[C@H](NC(=O)NC1CCS(=O)(=O)C1)C(=O)NCc1ccccc1Cl (some centres undefined) | 0.909%
98 | Nc1cc(CCC2CN(Cc3cccc(C(=O)O)c3)CCO2)ccn1 (centres undefined) | -7.61%
99 | CN(C)C(=O)c1cccnc1-c1ccc2c(c1)OCCO2 | -18.6%
100 | CN(Cc1ncnn1C1Cc2ccccc2C1)C1CCS(=O)(=O)C1 (centres undefined) | -2.74%
101 | CCOc1ccnc(N2CCN(C(=O)c3cccc(C#N)c3)CC2)n1 | -6.91%
102 | O=C(CC1Cn2ncnc2NC1=O)Nc1cccc(C(F)(F)F)c1 (centres undefined) | -11.2%
103 | F[C@@H]1CN(CC2CC2)C[C@@H]1OCc1nc2ccccc2o1 | -1.13%
104 | CCOCc1cnc2n1CCN(C(=O)c1cccc3c1OCCO3)C2C (centres undefined) | -5.93%
105 | O=S(=O)(NCC1(O)CCOCC1)c1ccccc1Br | -0.33%
106 | Cc1ccc(NS(=O)(=O)c2cc(C(=O)O)oc2C)c(Br)c1 | -6.35%
107 | Cc1cccn2c(=O)cc(CN3CCCC3Cn3cccn3)nc12 (centres undefined) | -1.74%
108 | Cc1nc(C)n(CC2CCCN(Cc3ccc(C(N)=O)cc3)C2)n1 (centres undefined) | -4.6%
109 | Cc1ccccc1C(N)c1ccncc1 (centres undefined) | -3.67%
110 | Cc1nccn1-c1ccc(NC(=O)C2CCCN2CC2CC2)cc1 (centres undefined) | -1.14%
111 | CC(=O)Nc1nc(C(=O)N2CCCC(n3ccnc3C)C2)cs1 (centres undefined) | -14.1%
112 | CNCC(=O)N1CCCC1c1nc(C(C)C)no1 (centres undefined) | -7.36%
113 | Cn1cc(C(=O)CC2CCCN2C(=O)c2ccc3[nH]ncc3c2)cn1 (centres undefined) | 30%
114 | O=C(CN1CCOC(CNc2cccnn2)C1)NCc1ccccn1 (centres undefined) | 19%

— ChEMBL document CHEMBL3507680, “University of Dundee, Gates Library screen for HepG2 cell viability”
